In patent US20240277698A1, “METHODS OF USING ALDOSTERONE SYNTHASE INHIBITORS” (CINCOR PHARMA, INC., priority 2021, published 2024):
Where two headings read alike, the source gives them in different places.

How the values were obtained:
[1] = MAD study: predose plasma adrenocorticotropic hormone (ACTH); assay type: in vivo, human
Excerpt: Table 10 presents mean predose plasma ACTH concentrations over time and change and percent change from Day 1 to Day 10 predose concentrations by treatment group for the PD Population.

[2] = SAD study Part 1: safety and tolerability (adverse events, laboratory values); assay type: in vivo; conditions: single oral dose, highest dose tested
Experimental: There were no deaths, serious adverse events (SAEs), or dose-limiting events and the maximum tolerated dose observed was at the highest dose tested (360 mg). Overall, the most frequently reported AEs following administration of a single dose of (R)-compound 1 were headache, nasopharyngitis, diarrhea, asthenia, dizziness, and nausea.
Urine sodium and the sodium to potassium ratio both increased, with the sodium loss in urine greater than the potassium retention. No change in urine creatinine was apparent.
AEs were reported for few subjects and the incidence was not dose dependent (Table 14). No severe AEs, SAEs, withdrawals due to AEs, or deaths were noted. Overall, the most frequently reported AEs across dose levels were headache, nasopharyngitis, diarrhea, and nausea; however, the only events reported by >1 subject at any dose level were toothache (2 subjects [12.5%] with placebo), nasopharyngitis (2 subjects [12.5%] with placebo), and headache (2 subjects [33.3%] with 180 mg). The majority of AEs were considered not related to study drug. Two events of moderate gastroenteritis were reported (with 180 mg and placebo) and all other AEs were mild in intensity.
Isolated markedly abnormal safety laboratory values were reported but no dose-dependent pattern was apparent. No AEs related to markedly abnormal safety laboratory values were reported. […]

[3] = Relative bioavailability of tablet versus oral solution, single 5 mg dose; assay type: in vivo, human; conditions: for AUC(0-inf) / AUC(0-t) / Cmax: 5 mg
Experimental: The relative bioavailability of the tablet formulation intended for use in future clinical studies as compared to the oral solution of (R)-compound 1 administered in the SAD and MAD was assessed following a single 5 mg dose of each formulation. Mean (+SD [standard deviation]) plasma concentration-time profiles following administration of the oral solution and tablet formulations are presented in FIG. 9.
Mean (SD) PK parameters of (R)-compound 1 following administration of the oral solution and tablet formulations are presented in Table 12.

CCC(=O)N[C@@H]1CCCc2c(-c3ccc4c(c3)CCC(=O)N4C)cncc21 [(R)-Compound 1, (R)—N-(4-(1-methyl-2-oxo-1,2,3,4-tetrahydroquinolin-6-yl)-5,6,7,8-tetrahydroisoquinolin-8-yl)propionamide]
Plasma ACTH, change from Day 1 to Day 10, predose, mean ([1]; 0.5 mg, normal salt diet): -0.15 pmol/L | Plasma ACTH, percent change from Day 1 to Day 10, predose, mean ([1]; 0.5 mg, normal salt diet): −2.01% | Plasma ACTH, change from Day 1 to Day 10, predose, mean ([1]; 1.5 mg, normal salt diet): -1.63 pmol/L | Plasma ACTH, percent change from Day 1 to Day 10, predose, mean ([1]; 1.5 mg, normal salt diet): −24.00% | Plasma ACTH, change from Day 1 to Day 10, predose, mean ([1]; 2.5 mg, low salt diet): 2.11 pmol/L | Plasma ACTH, percent change from Day 1 to Day 10, predose, mean ([1]; 2.5 mg, low salt diet): 184.44% | Plasma ACTH, change from Day 1 to Day 10, predose, mean ([1]; 2.5 mg, normal salt diet): -4.04 pmol/L | Plasma ACTH, percent change from Day 1 to Day 10, predose, mean ([1]; 2.5 mg, normal salt diet): −35.69% | Plasma ACTH, change from Day 1 to Day 10, predose, mean ([1]; 5.0 mg, low salt diet): 1.57 pmol/L | Plasma ACTH, percent change from Day 1 to Day 10, predose, mean ([1]; 5.0 mg, low salt diet): 125.86% | Predose plasma ACTH, mean ([1]; Day 1, predose, 0.5 mg, normal salt diet): 3.91 pmol/L | Predose plasma ACTH, mean ([1]; Day 1, predose, 1.5 mg, normal salt diet): 6.30 pmol/L | Predose plasma ACTH, mean ([1]; Day 1, predose, 2.5 mg, low salt diet): 1.47 pmol/L | Predose plasma ACTH, mean ([1]; Day 1, predose, 2.5 mg, normal salt diet): 6.40 pmol/L | Predose plasma ACTH, mean ([1]; Day 1, predose, 5.0 mg, low salt diet): 1.96 pmol/L | Predose plasma ACTH, mean ([1]; Day 10, predose, 0.5 mg, normal salt diet): 3.76 pmol/L | Predose plasma ACTH, mean ([1]; Day 10, predose, 1.5 mg, normal salt diet): 4.67 pmol/L | Predose plasma ACTH, mean ([1]; Day 10, predose, 2.5 mg, low salt diet): 3.59 pmol/L | Predose plasma ACTH, mean ([1]; Day 10, predose, 2.5 mg, normal salt diet): 2.80 pmol/L | Predose plasma ACTH, mean ([1]; Day 10, predose, 5.0 mg, low salt diet): 3.52 pmol/L | ACTH increase compared to placebo ([1]; low salt diet conditions (Cohorts 1 and 2)): somewhat more pronounced | ACTH ([1]; normal salt diet conditions): apparent dose-dependent decreases | maximum tolerated dose [2]: 360 mg | AUC(0-inf) ([3]; human, plasma, oral, tablet, read-out: AUC0-inf, GM (Geo. CV %)): 1670 ng·h/mL | AUC(0-inf) ([3]; human, plasma, oral, tablet, read-out: AUC0-inf, Geo. LS Mean): 1720 ng·h/mL | AUC(0-inf) ([3]; human, plasma, oral, tablet, read-out: AUC0-inf, Mean): 1720 ng·h/mL | AUC(0-t) ([3]; human, plasma, oral, tablet, read-out: AUC0-t, GM (Geo. CV %)): 1580 ng·h/mL | AUC(0-t) ([3]; human, plasma, oral, tablet, read-out: AUC0-t, Geo. LS Mean): 1620 ng·h/mL | AUC(0-t) ([3]; human, plasma, oral, tablet, read-out: AUC0-t, Mean): 1620 ng·h/mL | Cmax ([3]; human, plasma, oral, tablet, read-out: Cmax, GM (Geo. CV %)): 52.3 ng/mL | Cmax ([3]; human, plasma, oral, tablet, read-out: Cmax, Geo. LS Mean): 52.8 ng/mL | Cmax ([3]; human, plasma, oral, tablet, read-out: Cmax, Mean (SD)): 53.1 ng/mL | Tmax ([3]; human, plasma, oral, tablet, read-out: Tmax, Median (min, max)): 3 h | AUC(0-inf) ([3]; human, plasma, po, oral solution, read-out: AUC0-inf, GM (Geo. CV %)): 1710 ng·h/mL | AUC(0-inf) ([3]; human, plasma, po, oral solution, read-out: AUC0-inf, Geo. LS Mean): 1680 ng·h/mL | AUC(0-inf) ([3]; human, plasma, po, oral solution, read-out: AUC0-inf, Mean): 1750 ng·h/mL | AUC(0-t) ([3]; human, plasma, po, oral solution, read-out: AUC0-t, GM (Geo. CV %)): 1610 ng·h/mL | AUC(0-t) ([3]; human, plasma, po, oral solution, read-out: AUC0-t, Geo. LS Mean): 1580 ng·h/mL | AUC(0-t) ([3]; human, plasma, po, oral solution, read-out: AUC0-t, Mean): 1650 ng·h/mL | Cmax ([3]; human, plasma, po, oral solution, read-out: Cmax, GM (Geo. CV %)): 52.7 ng/mL | Cmax ([3]; human, plasma, po, oral solution, read-out: Cmax, Geo. LS Mean): 52.1 ng/mL | AUCextrapolated, GM (Geo. CV %) ([3]; oral solution): 5.018 (56.4) % | AUCextrapolated, Mean (SD) ([3]; oral solution): 5.565 (2.2131) % | Cmax, Mean (SD) ([3]; oral solution): 53.886 (11.6813) ng/mL | Tmax, Median (min, max) ([3]; oral solution): 2.500 (1.00, 3.50) h | AUCextrapolated, GM (Geo. CV %) ([3]; tablet): 4.995 (59.7) % | AUCextrapolated, Mean (SD) ([3]; tablet): 5.600 (2.3669) % | AUC0-inf, Ratio of Geo. LS Means (tablet/solution) ([3]; tablet versus oral solution): 102.2% | AUC0-t, Ratio of Geo. LS Means (tablet/solution) ([3]; tablet versus oral solution): 102.2% | Cmax, Ratio of Geo. LS Means (tablet/solution) ([3]; tablet versus oral solution): 101.2%
